Reference: PMC8945229, “Development and Biological Characterization of a Novel Selective TrkA Agonist with Neuroprotective Properties against Amyloid Toxicity” (Biomedicines, 2022)

How the values were obtained:
Format in all cases: cell-based
TrkB = target: T1, TrkB (Homo sapiens, UniProt Q16620); experiment: TrkB phosphorylation in NIH-3T3 cells stably transfected with TrkB; details: 500 nM, 30′
T1 construct: expressed in transfected cells
Method: (§1) PC12 and HEK293T cells were obtained from LGC Promochem GmbH (Teddington, UK) and cultured under the conditions specified by the manufacturer. NIH3T3 cells were stably transfected with human TrkB plasmid. PC12 cells were grown in DMEM medium (11965084, Gibco, Grand Island, NY, USA) containing 10% Horse Serum (16050122, Gibco, Grand Island, NY, USA), 5% Fetal Bovine Serum (10270106, Gibco, Grand Island, NY, USA), 100 units/mL Penicillin and 0.1 mg/mL Streptomycin (15140122, Gibco, Grand Island, NY, USA) at 5% CO2 and 37 °C. Cells were used between passages 5–20. HEK293T and NIH3T3 cells were grown in the same medium as PC12 cells supplemented with 10% Fetal Bovine Serum and lacking Horse Serum. For transient transfection of HEK293T cells, lipofectamine was used and cells were transfected with human p75^NTR and Traf6 plasmids. To determine the intracellular activity of endogenous secretases, we tagged (tGFP) a truncated mutant (Tm) of APP containing the original amino acids sequence from M516 to N773. This Tm conserves the secretases cleavage sites, clathrin binding site, tau protein binding site, collagen binding site and some glycosylation sites critical for protein localization and intracellular trafficking. The cDNA of the TmAPP gene was amplified by PCR and subcloned into pturbo-GFP vector. […]

PC12 cells = experiment: CellTox assay, serum deprivation-induced cell death
Method: CellTox assay (G8742, Promega Corporation, Maddison, WI, USA) was used to assess survival of PC12 cells under serum deprivation conditions. PC12 cells were plated in 96-well plates, starved of serum for 4 h and subsequently treated with NGF (100 ng/mL) or ENT-A013 (500 nM) in the presence or absence of TrkA inhibitor GW441756 (20 μM, G-190, Alomone labs, Jerusalem, Israel) for 24 h. CellTox assay reagents and Hoescht (1:10,000, H3570, Invitrogen, Waltham, MA, USA) were added to each well for 30′ and cells were then imaged with a Zeiss AXIO Vert A1 fluorescent microscope (Zeiss, Jena, Germany). CellTox positive cells were normalized to total number of cells for each image.

p75^NTR = target: T2, p75^NTR (Homo sapiens, UniProt P08138); experiment: p75NTR activation in HEK cells transfected with p75NTR and Traf6 (immunoprecipitation); details: 500 nM, 30′
T2 construct: expressed in transfected cells; host or cells: HEK293T (transient, lipofectamine)
T2 sequence (P08138 29-427): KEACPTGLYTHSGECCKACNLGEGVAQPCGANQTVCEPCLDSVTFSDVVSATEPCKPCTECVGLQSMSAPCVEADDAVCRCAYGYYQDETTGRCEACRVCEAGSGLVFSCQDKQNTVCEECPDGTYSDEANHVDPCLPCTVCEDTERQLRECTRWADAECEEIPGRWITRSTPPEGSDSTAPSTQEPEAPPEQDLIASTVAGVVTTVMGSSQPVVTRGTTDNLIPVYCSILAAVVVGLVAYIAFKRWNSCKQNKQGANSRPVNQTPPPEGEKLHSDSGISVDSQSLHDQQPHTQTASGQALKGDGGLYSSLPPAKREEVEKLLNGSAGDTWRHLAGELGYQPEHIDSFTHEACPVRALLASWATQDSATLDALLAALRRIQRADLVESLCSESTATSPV
Method: as §1

[1] = test system: HEK cells transfected with p75NTR; experiment: CellTox assay in serum-starved HEK cells transfected with p75NTR; details: 500 nM, 24hrs
Method: (A) HEK cells transfected with p75NTR and Traf6 were treated with ENT-A013 (500nM) or NGF (100ng/ml) for 30’ and then were subjected to immunoprecipitation experiments against p75.
(C) HEK cells transfected with p75NTR were starved from serum and treated with ENT-A013 (500nM) or NGF (100ng/ml) for 24hrs and subsequently subjected to CellTox assay. […]
difference between ENT-A013 treated group and negative control (Serum Free).
(1 picture or pasted object on this page, not shown here)

T1 sequence (Q16620 32-822): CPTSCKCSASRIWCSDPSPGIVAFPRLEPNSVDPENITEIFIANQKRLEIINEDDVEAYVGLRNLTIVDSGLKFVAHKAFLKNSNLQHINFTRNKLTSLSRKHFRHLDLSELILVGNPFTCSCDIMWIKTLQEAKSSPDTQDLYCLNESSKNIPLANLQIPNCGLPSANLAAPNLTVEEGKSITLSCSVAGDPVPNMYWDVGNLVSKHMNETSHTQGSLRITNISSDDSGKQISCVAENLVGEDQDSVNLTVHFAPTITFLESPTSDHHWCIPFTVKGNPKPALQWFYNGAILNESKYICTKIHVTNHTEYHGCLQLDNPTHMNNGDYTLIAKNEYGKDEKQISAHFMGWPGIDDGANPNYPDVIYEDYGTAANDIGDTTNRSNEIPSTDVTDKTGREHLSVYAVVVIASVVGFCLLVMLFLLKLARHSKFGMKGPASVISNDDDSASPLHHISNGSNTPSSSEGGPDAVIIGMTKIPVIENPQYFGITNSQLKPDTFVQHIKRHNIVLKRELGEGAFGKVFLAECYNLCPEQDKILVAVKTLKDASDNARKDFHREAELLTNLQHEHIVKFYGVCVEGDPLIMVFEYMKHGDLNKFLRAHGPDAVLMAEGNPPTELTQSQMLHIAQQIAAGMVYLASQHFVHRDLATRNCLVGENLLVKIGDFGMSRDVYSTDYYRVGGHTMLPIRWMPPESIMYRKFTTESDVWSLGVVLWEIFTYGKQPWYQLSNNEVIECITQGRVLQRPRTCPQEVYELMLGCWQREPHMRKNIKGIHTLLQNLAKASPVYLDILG

CC12CCC(O)CC1=CCC1C2CCC2(C)C1CCC21CC1C=CBr [ENT-A013, (2′R,3S,17S)-2′-(2-Bromovinyl)-5-Androstene-17,1′-Cyclopropan-3-ol]
TrkB phosphorylation (in words) (TrkB): did not induce phosphorylation
IC50 (PC12 cells; Rattus norvegicus, PC-12, serum deprivation, CellTox, read-out: IC50 (anti-apoptotic dose–response)): 167 nM
CellTox positive cells normalized to total number of cells (PC12 cells; serum deprivation, 24 h, 500 nM): 0.11 ± 0.01
p75NTR activation (in words) (p75^NTR): does not activate
cell death vs negative control (Serum Free) (in words) [1]: no significant
